In data set [1] the test system is Human Immunodeficiency Virus type 1 (HIV) strain #237228 in human peripheral blood lymphocytes (PBLs). Kind of data set: Anti-HIV-1 antiviral activity in acutely infected peripheral blood lymphocytes (CPE and RT activity). Type of data set: cell-based, Human Immunodeficiency Virus type 1 (HIV); human cells. The conditions noted are these: for IC100: Human immunodeficiency virus 1, 144 h, PBL cells, acute HIV-1 infection, day 6, concentration at which virus replication is inhibited (CPE negative or trace, >95% inhibition of RT activity); for antiviral index (Al), PBL cells: only non-toxic concentrations used, 8640 min. An excerpt:
(§1) The antiviral activity of representative compounds of the present invention has been determined at the Antivirals Laboratory, Fairfield Hospital, Fairfield, Victoria, Australia. In this test a stock solution of each compound was made in DMSO, then diluted in culture medium (RF 10) to 2× the final concentration required for test. The final concentration of DMSO was 1% or below. Approximately 250,000 continuous lymphocytes of human origin (MT2 cells) or 750,000 human peripheral blood lymphocytes (PBLs) were exposed to dilutions of each test compound, then immediately infected with Human Immunodeficiency Virus type 1 (HIV) strain #237228 (a clinical isolate obtained from a human source). The infectivity titers were expressed as tissue culture 50% infective dose (TCID50 per ml) with 1 TCID50 corresponding to the amount of supernatant required to infect 50% of the replicate cell cultures. The 250 and 200 TCID50 were used for MT2 and PBL cells respectively. The cell/drug/virus mixture was then incubated at 37° C./CO2 in a 24-well microtitre plate. Fresh amounts of the appropriate dilution of each drug were added to both MT2 and PBL cultures at day 3. At day 6, the extent of HIV-specific cytopathic effects (CPE) associated with each concentration of test compound in each of the cultures was rated according to the following scale:
(§2) 4+: 75-100% of cells showing 3+: good CPE
(§3) 3+: 50-75% of cells showing 2+: moderate CPE
(§4) 2+: 25-50% of cells showing 1+: low CPE
(§5) 1+: 5-25% of cells showing trace: minimal CPE
(§6) +/-: less than 5% CPE Negative: no CPE
(§7) The activity of the compounds at each concentration was also assessed by their ability to inhibit viron-associated reverse transcriptase (RT) activity in the culture supernates. At the time of rating of CPE, supernatant fluids from each well were removed and RT activity measured using a standard assay. CPE ratings of negative, ± (in MT2 cells) or trace (in PBLs), with greater than 95% inhibition of RT activity, was considered to represent IC100 (the concentration of compound at which the virus replication is inhibited). Control cultures included in each test were:
(§8) (a) HIV-infected cells in the absence of test compound.
(§9) (b) Uninfected cells in the absence of tested compound.
(§10) (c) Cell toxicity control consisting of uninfected cells treated with dilutions of test compound.
(§11) At the conclusion of each experiment, viable cells in these cultures, as determined by tryptan blue exclusion, were compared with the counts obtained in (b), above.

The next data set deals with MT2 cells and PBLs. Kind of data set: Toxicity to the cells (viable cells, trypan blue exclusion). Type of data set: cell-based, human. To be noted: compared to AZT (azidothymidine), in words.
Text: as §10, §11

The test system of data set [2] is Human Immunodeficiency Virus type 1 (HIV) strain #237228 in MT2 cells. The experiment in a line: Anti-HIV-1 antiviral activity in acutely infected MT2 cells (CPE and RT activity). To be noted: for IC100: Human immunodeficiency virus 1, 144 h, acute HIV-1 infection, day 6, concentration at which virus replication is inhibited (CPE negative or ±, >95% inhibition of RT activity); for antiviral index (Al), MT2 cells: only non-toxic concentrations used, 8640 min. Type of data set: cell-based.
Text: as §1, §2, §3, §4, §5, §6, §7, §8, §9, §10, §11

The target of a further data set is HIV-1 protease (Human immunodeficiency virus type 1 group M subtype B, UniProt P04585). Kind of data set: HIV-1 protease-inhibiting activity. Type of data set: biochemical. To be noted: half-maximal inhibition of HIV-1 protease. An excerpt:
The HIV protease-inhibiting activity of representative compounds of the present invention has been tested by known methods (Brinkworth, R. I., et al., Biochem. Biophys. Res. Commun. 176, 241, (1991); McLeod, D. A., et al., Bioorganic & Medicinal Chemistry Letters (1991) 653-658).

The values that follow come from patent US6258806A, “Amine derivatives of oxo- and hydroxy- substituted hydrocarbons” (Narhex Limited, priority 1992, dated 2001).

SMILES strings stand for the structures.

For `CC(C)N(C[C@@H](O)[C@H](Cc1ccccc1)NC(=O)[C@H](CC(N)=O)NC(=O)c1ccc2ccccc2n1)NC(=O)c1ccccc1NC(=O)OCc1ccccn1` [Compound 8, 1-(2-Pyridyl)methoxycarbonylanthranilyl-2-[(2R,3S)-2-hydroxy-3-(N-quinaldoyl-L-asparaginyl)amino4-phenylbutyl]-2-isopropyl-hydrazine], in data set [1], the IC100 was 0.1 µM and the “antiviral index (Al), PBL cells” value is above 100. The “toxicity to the cells compared to AZT” value with MT2 cells and PBLs is listed as “lower toxicity to the cells”. Also, in data set [2], the IC100 came to 0.1 µM and the “antiviral index (Al), MT2 cells” value is above 100.
On HIV-1 protease, `CC(C)N(C[C@H](O)[C@H](Cc1ccccc1)NC(=O)[C@H](CC(N)=O)NC(=O)c1ccc2ccccc2n1)NC(=O)OC(C)(C)C` [Compound 7B, t-Butyl 3-isogrooyl-3-[(2S, 3S)-2-hydroxy-3-(N-quinaldyl-L-asparaginyl)amino-4-phenylbutyl]carbazate] yielded an IC50 below 3.5 nM. Besides, in data set [1], the IC100 turned out to be 0.1 µM and the “antiviral index (Al), PBL cells” value is listed as above 200. Moreover, the “toxicity to the cells compared to AZT” value in the data set on MT2 cells and PBLs is reported as “lower toxicity to the cells”. Moreover, in data set [2], the IC100 turned out to be 0.1 µM and the “antiviral index (Al), MT2 cells” value was 200.
`CC(C)(C)OC(=O)N1Cc2ccccc2CN1CC(O)[C@H](Cc1ccccc1)NC(=O)[C@H](CC(N)=O)NC(=O)c1ccc2ccccc2n1` (stereo partly drawn) [Compound 11, 2-t-Butoxycarbonyl-3-[(2RS, 3S)-2-hydroxy-3-(N-quinaldyl-L-asparaginyl)amino-4-phenylbutyl]-1,2,3,4-tetrahydrophthalazine] had an IC50 on HIV-1 protease of 12.5 ± 3.2 nM. Besides, in data set [2], the IC100 was 1 µM and the “antiviral index (Al), MT2 cells” value is recorded as above 10.
Take `CC(C)N(C[C@@H](O)[C@H](Cc1ccccc1)NC(=O)[C@H](CC(N)=O)NC(=O)c1ccc2ccccc2n1)NC(=O)OC(C)(C)C` [Compound 7A, t-Butyl 3-Isopropyl-3-[(2R,3S)-2-hydroxy-3-(N-quinaldyl-L-asparaginyl)amino-4-phenylbutyl]carbazate]: the IC50 against HIV-1 protease came to 7.3 ± 0.7 nM. Also, in data set [1], the IC100 came out at 1 µM and the “antiviral index (Al), PBL cells” value was 25. In data set [2], the IC100 is 1 µM and the “antiviral index (Al), MT2 cells” value is recorded as 50.
Regarding `CC(C)(C)OC(=O)NN(C[C@H](O)[C@H](Cc1ccccc1)NC(=O)[C@H](CC(N)=O)NC(=O)c1ccc2ccccc2n1)C1CCCCC1` [Compound 17, t-Butyl 3-cyclohexyl-3-[(2S,3S)-2-hydroxy-3-(N-quinaldyl-L-asparaginyl)amino-4-phenylbutyl]carbazate], in data set [1], the IC100 stood at 0.1 µM and the “antiviral index (Al), PBL cells” value is recorded as 200. Moreover, the “toxicity to the cells compared to AZT” value in the data set on MT2 cells and PBLs is on record as “lower toxicity to the cells”. In data set [2], the IC100 worked out at 0.1 µM and the “antiviral index (Al), MT2 cells” value turned out to be 100.
In turn, `CC(C)(C)OC(=O)N1CC2CCCCC2CN1CC(O)[C@H](Cc1ccccc1)NC(=O)[C@H](CC(N)=O)NC(=O)c1ccc2ccccc2n1` (stereo partly drawn) [Compound 2a, cis-1,6-3-t-Butoxycarbonyl-4-[(2RS,3S)-2-hydroxy-3-(N-quinaldyl-L-asparaginyl)amino-4-phenylbutyl]-3,4daza-bicylo[4.4.0]decane] displayed an IC50 against HIV-1 protease of 5.4 ± 0.54 nM. In addition, in data set [1], the IC100 was 0.1 µM and the “antiviral index (Al), PBL cells” value stood at 100. Besides, in data set [2], the IC100 worked out at 0.1 µM and the “antiviral index (Al), MT2 cells” value is reported as 50.
For the compound `CC(C)[C@H](NC(=O)OCc1ccccn1)C(=O)N[C@@H](Cc1ccccc1)C(O)CN1C2CCC(C2)N1C(=O)OC(C)(C)C` (stereo partly drawn) [Compound 10, 2-t-Butoxycarbonyl-3-[(2RS, 3S)-2-hydroxy-3-[N-(2-pyridyl)-methoxycarbonyl-L-valyl]amino-4-phenylbutyl]-2,3-diaza-bicyclo[2.2.1]-heptane], on HIV-1 protease, 3300 ± 650 nM corresponded to half-maximal inhibition (IC50). In addition, in data set [2], the IC100 amounted to 25 µM and the “antiviral index (Al), MT2 cells” value was found to be 1.

By IC50 is commonly meant the concentration at which inhibition is half-maximal. A low value points to greater potency in that assay.
